Laboratory results: patent publication US7417036B2, “Crystal form of adefovir dipivoxil and its preparation” (Tianjin Kinsly Pharmaceutical Co. Ltd., priority 2002, dated 2008)
“And” between values parts separate entries of the source, which are not always exact repeats. Equal entries are not always repeated.

Assay: Kinetic studies of the plasma concentration in animals with different crystalline forms of AD (oral, monkeys; adefovir measured in serum by HPLC)
Type: in vivo, Macaques
Conditions: 20 mg/kg, 20 mg/kg
Experimental: The experiment was carried out by orally administering to monkeys the drugs in order to investigate the in vivo absorption of two crystalline forms of AD: the novel crystalline AD of the present invention produced by Tianjin Kinsly pharmaceutical R & D Co. Ltd. and crystalline form I of AD prepared according to the method of GILEAD SCIENCES INC. The experiment provides useful clinical references for the application of novel crystalline AD.
Tablets of novel crystalline form of AD, white, each of which contains 10 mg of adefovir, Tianjin Kinsly pharmaceutical R&D Co. Ltd., batch number 020320.
Tablets of AD crystalline form I, white, each of which contains 10 mg of adefovir, Tianjin Kinsly pharmaceutical R&D Co. Ltd., batch number 020225.
Macaques, weighing from 5 kg to 8 kg (certificate No: 2001-03, approved by Beijing Forestry Administration in the document of [2001] 83) were provided by Xie'er Animal Health Caring Science and Technology Co. Ltd (Beijing, P. R. China).
As the pro-drug of adefovir, AD is the bis-pivaloyloxymethyl ester of adefovir, which increases the in vivo bioavailability of orally administered adefovir. AD can be rapidly metabolized into PMEA, rendering it undetectable in blood. Thus the concentration of its parent compound was measured.
Mobile phase: 0.2% phosphoric acid-methanol-B7 (97:3:0.5) degassed and filtrated through 0.45 μm milipore filter.
Stationary phase: C18-column (4.6×250 mm) packed with 5μ fillers, Tianjin Tianhe Chromatogram Inc, the column temperature from 18° C. to 22° C.
Detection: the UV detection wavelength λ=260 nm (0.01AUFS)
A given volume of serum was taken and an equal volume of 10% trichloroacetic acid was added. The mixture was shaken thoroughly and kept still for more than 30 min to precipitate the proteins, then centrifuged at 10000 rpm for 2 min. The precipitates were separated and 30 μL of the supernat was removed for injection.
The experiment was started one week after intestinal worms were dispelled from the animals. Eight animals were randomly assigned into two groups, each consisting of four animals. The animals were fasted for 12 h and were orally administered the novel crystalline form of AD for one group or crystalline form I of AD for another group at a dose of 20 mg/kg together with 200 ml of water. 2 hours after administration, the animals were fed in a fixed quantity. 2.0 ml samples of whole blood were collected from the elbow veins before administration and 10, 20, 30, 45 min and 1, 2, 4, 6, 8, 12, and 24 h after administration. The serum was separated and freeze-stored for measurement. A cross-experiment was done similarly 2 weeks later.
The pharmacokinetic parameters were calculated based on the plasma concentrations at different time points. The time to peak concentration (Tpeak) and the maximum concentration (Cmax) used the measured value. The terminal phase elimination rate constant (Ke) was obtained by fitting the linear section of the curve of logarithm of the plasma concentration of drug in terminal phase versus time and the terminal phase clearance half life time (T1/2) was calculated by dividing 0.693 by Ke. AUC0-t was calculated according to the trapezoid rule.
Apparent volume of distribution (Vd)=dosage/(AUCXKe);
Total Clearance (CL)=dosage/AUC.
Comparison of the data of the two crystalline form: Data of Cmax, Ke, T1/2 and AUC0-t were statistically processed by t test, while Tpeak was processed by non-parametric test. In addition, Comparison of bio-equivalence was carried out based on Cmax and AUC0-t by using two one-sided t test.
Eight macaques were assigned into two groups, group for the novel crystalline form and the group for crystalline form I. The animals were administered according to an open randomized crossover scheme. Afterward, adefovir concentrations in serum were measured at the predetermined time points. […]

[1] = adefovir, oral 20 mg/kg, macaques, average of 8 animals (ASD row)
[2] = adefovir, oral 20 mg/kg, macaques, average of 8 animals
[3] = adefovir, oral 20 mg/kg, macaques, individual animal No. 1-8

**Q.** What does the source list for `CC(C)(C)C(=O)OCOP(=O)(COCCn1cnc2c(N)ncnc21)OCOC(=O)C(C)(C)C` [novel crystalline form]?
**A.** Adefovir concentrations in serum (Plasma concentrations versus time), average (0.167 h after oral administration, macaques, average of 8 animals (ASD row)): 74.3 ng/mL; Adefovir concentrations in serum (Plasma concentrations versus time) (0.167 h after oral administration, macaques, individual animal No. 1-8): 51.8 ng/mL and 105.0 ng/mL and 103.9 ng/mL and 78.3 ng/mL and 64.9 ng/mL and 53.2 ng/mL and 60.0 ng/mL and 76.9 ng/mL; Adefovir concentrations in serum (Plasma concentrations versus time), average (0.333 h after oral administration, macaques, average of 8 animals (ASD row)): 201.4 ng/mL; Adefovir concentrations in serum (Plasma concentrations versus time) (0.333 h after oral administration, macaques, individual animal No. 1-8): 186.7 ng/mL and 258.5 ng/mL and 248.8 ng/mL and 190.1 ng/mL and 125.9 ng/mL and 154.1 ng/mL and 176.3 ng/mL and 270.7 ng/mL; Adefovir concentrations in serum (Plasma concentrations versus time), average (0.5 h after oral administration, macaques, average of 8 animals (ASD row)): 507.4 ng/mL; Adefovir concentrations in serum (Plasma concentrations versus time) (0.5 h after oral administration, macaques, individual animal No. 1-8): 952.4 ng/mL and 403.1 ng/mL and 398.3 ng/mL and 541.8 ng/mL and 396.0 ng/mL and 448.9 ng/mL and 529.4 ng/mL and 389.5 ng/mL; Adefovir concentrations in serum (Plasma concentrations versus time), average (0.75 h after oral administration, macaques, average of 8 animals (ASD row)): 392.0 ng/mL; Adefovir concentrations in serum (Plasma concentrations versus time) (0.75 h after oral administration, macaques, individual animal No. 1-8): 507.6 ng/mL and 306.8 ng/mL and 538.7 ng/mL and 360.6 ng/mL and 278.8 ng/mL and 195.6 ng/mL and 393.7 ng/mL and 55.0 ng/mL; Adefovir concentrations in serum (Plasma concentrations versus time), average (1 h after oral administration, macaques, average of 8 animals (ASD row)): 238.8 ng/mL; Adefovir concentrations in serum (Plasma concentrations versus time) (1 h after oral administration, macaques, individual animal No. 1-8): 260.3 ng/mL and 231.8 ng/mL and 374.7 ng/mL and 269.4 ng/mL and 233.5 ng/mL and 132.7 ng/mL and 273.4 ng/mL; Adefovir concentrations in serum (Plasma concentrations versus time), average (2 h after oral administration, macaques, average of 8 animals (ASD row)): 199.3 ng/mL; Adefovir concentrations in serum (Plasma concentrations versus time) (2 h after oral administration, macaques, individual animal No. 1-8): 221.6 ng/ml and 196.1 ng/ml (2×) and 241.4 ng/ml and 117.7 ng/ml and 105.3 ng/ml and 260.3 ng/ml; Adefovir concentrations in serum (Plasma concentrations versus time), average (4 h after oral administration, macaques, average of 8 animals (ASD row)): 157.3 ng/mL; Adefovir concentrations in serum (Plasma concentrations versus time) (4 h after oral administration, macaques, individual animal No. 1-8): 205.1 ng/mL and 140.9 ng/mL and 184.8 ng/mL and 198.9 ng/mL and 175.8 ng/mL and 85.0 ng/mL and 77.2 ng/mL and 191.0 ng/mL; Adefovir concentrations in serum (Plasma concentrations versus time), average (6 h after oral administration, macaques, average of 8 animals (ASD row)): 119.7 ng/mL; Adefovir concentrations in serum (Plasma concentrations versus time) (6 h after oral administration, macaques, individual animal No. 1-8): 177.0 ng/mL and 114.5 ng/mL and 95.2 ng/mL and 141.2 ng/mL and 141.3 ng/mL and 85.9 ng/mL and 57.3 ng/mL and 145.3 ng/mL; Adefovir concentrations in serum (Plasma concentrations versus time), average (8 h after oral administration, macaques, average of 8 animals (ASD row)): 102.7 ng/mL; Adefovir concentrations in serum (Plasma concentrations versus time) (8 h after oral administration, macaques, individual animal No. 1-8): 158.9 ng/mL and 96.9 ng/mL and 112.0 ng/mL and 89.4 ng/mL and 110.7 ng/mL and 79.0 ng/mL and 55.6 ng/mL and 119.2 ng/mL; Adefovir concentrations in serum (Plasma concentrations versus time), average (12 h after oral administration, macaques, average of 8 animals (ASD row)): 70.3 ng/mL; Adefovir concentrations in serum (Plasma concentrations versus time) (12 h after oral administration, macaques, individual animal No. 1-8): 112.6 ng/mL and 82.1 ng/mL and 46.1 ng/mL and 64.5 ng/mL and 44.8 ng/mL and 59.4 ng/mL and 80.5 ng/mL and 72.2 ng/mL; Adefovir concentrations in serum (Plasma concentrations versus time), average (24 h after oral administration, macaques, average of 8 animals (ASD row)): 51.7 ng/mL; Adefovir concentrations in serum (Plasma concentrations versus time) (24 h after oral administration, macaques, individual animal No. 1-8): 99.3 ng/mL and 76.3 ng/mL and 28.3 ng/mL and 53.1 ng/mL and 36.6 ng/mL and 41.6 ng/mL and 59.4 ng/mL and 19.2 ng/mL; Vd (adefovir apparent volume of distribution, oral 20 mg/kg, macaques, individual animal No. 1-8): 147.5 L and 211.8 L and 89.1 L and 115.1 L and 112.4 L and 265.9 L and 224.6 L and 67.1 L; CL, average [1]: 8601.4 mL/h; Ke, average [1]: 0.066 L/h; T1/2, average [1]: 12.5 h; Tpeak, average [1]: 0.56 h; Vd, average [1]: 154.2 L; AUC0-t, average [2]: 2426.4 ng·h/mL; Cmax, average [2]: 545.7 ng/mL; AUC0-t, average (adefovir, oral 20 mg/kg, macaques, average of 8 animals, listed as Novel form): 2426 ng·h/mL; AUC0-t [3]: 3593.4 ng·h/mL and 2567.8 ng·h/mL and 2318.3 ng·h/mL and 2554.7 ng·h/mL and 2162.8 ng·h/mL and 1735.9 ng·h/mL and 1921.2 ng·h/mL and 2556.8 ng·h/mL; Cmax [3]: 403.1 ng/mL and 538.7 ng/mL and 541.8 ng/mL and 396.3 ng/mL and 448.9 ng/mL and 529.4 ng/mL and 555.0 ng/mL; T1/2 [3]: 18.4 h and 18.8 h and 7.2 h and 10.2 h and 8.4 h and 16.0 h and 14.9 h and 5.9 h; Tpeak [3]: 0.50 h (6×) and 0.75 h (2×); Cmax (adefovir, oral 20 mg/kg, macaques, individual animal No. 1-8, listed as Novel form): 952.4 ng/mL and 396.2 ng/mL and 448.8 ng/mL; average AUCO-T (adefovir, oral 20 mg/kg): 2426.37 ng·h/mL; average Tpeak (adefovir, oral 20 mg/kg): 0.56 h; average apparent volume of distribution (Vc) (adefovir, oral 20 mg/kg): 19.74 L; average elimination half-life time (adefovir, oral 20 mg/kg): 12.5 h; average peak concentration (adefovir, oral 20 mg/kg): 545.69 ng/mL
